From patent US20240116853A1, “2-HYDROXY-5-[2-(4-(TRIFLUOROMETHYLPHENYL)ETHYLAMINO)]BENZOIC ACID CRYSTAL FORMS AND PREPARATION METHOD THEREFOR” (GNT PHARMA CO., LTD., priority 2020, published 2024)
Values after ≈ are worked out from the molar mass of the structure shown.

Columns and labels:
[1] = apparent solubility tested by HPLC; type: physicochemical; settings: for Chromatographic peak area: HPLC peak area of the apparent solubility test; for apparent solubility compared with raw material: HPLC, versus crude raw materials
[2] = crystalline form stability test (XRPD after storage at 40° C. and 60% RH for three months); type: physicochemical
Experimental: In the present disclosure, the experimental conditions of X-ray powder diffraction are as follows. The test was performed by an X-ray powder diffractometer (radiation source Cu-kα, μ=1.5418 Å), and the XRPD spectrum with 2θ value of 3˜40° was scanned. The XRPD spectra of crystalline form I in Example 1 and crystalline form II in Example 2 are shown in FIG. 1 and FIG. 5, respectively, and the XRPD data are shown in Table 1. In order to test the stability of the crystalline form, the crystalline form I in Example 1 and the crystalline form II in Example 2 were subjected to powder diffraction test after being left under 40° C. and 60% relative humidity (RH) conditions for three months, and the results are shown in FIG. 1 and FIG. 5, respectively.
Crystalline form stability test: a certain amount of samples were left under 40° C. and 60% RH conditions for three months, and their powder diffraction results were tested, as shown in FIG. 1.
Crystalline form stability test: a certain amount of samples were left under 40° C. and 60% RH conditions for three months, and their powder diffraction results were tested, as shown in FIG. 5.

Alzheimer's disease = settings: background statement; cited from earlier work

| SMILES | Chromatographic peak area [1] | solubility ([1]; thermodynamic from solid, tested by HPLC) [µg/mL] | apparent solubility compared with raw material [1] | Solubility (apparent solubility) ([1]; tested by HPLC) [µg/mL] | crystalline form stability (XRPD characteristic peaks versus initial time) [2] | effect on Alzheimer's disease in clinical trials (Alzheimer's disease) |
| --- | --- | --- | --- | --- | --- | --- |
| O=C(O)c1cc(NCCc2ccc(C(F)(F)F)cc2)ccc1O [Raw material, 2-hydroxy-5-[2-(4-(trifluoromethylphenyl)ethylamino)]benzoic acid] | 249333 | 1770 (≈ 5.44 mM) |  |  |  |  |
| O=C(O)c1cc(NCCc2ccc(C(F)(F)F)cc2)ccc1O [Crystalline form II, 2-hydroxy-5-[2-(4-(trifluoromethylphenyl)ethylamino)]benzoic acid] | 311308 |  | higher apparent solubility | 2600 (≈ 7.99 mM) | relatively stable |  |
| O=C(O)c1cc(NCCc2ccc(C(F)(F)F)cc2)ccc1O [2-hydroxy-5-[2-(4-(trifluoromethylphenyl)ethylamino)]benzoic acid] |  |  |  |  |  | good inhibitory effect on Alzheimer's disease |
| O=C(O)c1cc(NCCc2ccc(C(F)(F)F)cc2)ccc1O [Crystalline form I, 2-hydroxy-5-[2-(4-(trifluoromethylphenyl)ethylamino)]benzoic acid] | 263684 |  | higher apparent solubility | 1880 (≈ 5.78 mM) | stable and unchanged |  |
